According to patent US11179363B2, “Non-steroidal selective glucocorticoid receptor agonistic modulators (SEGRAMs) and uses thereof” (ASSOCIATION POUR LA RECHERCHE À L'IGBMC (ARI), priority 2017, dated 2021):

Legend:
[1] = test system: dorsal skin of Balb/C mice; assay: Skin epidermis atrophy after 8-day topical treatment of dorsal skin; type: in vivo; settings: eight-day topical treatment
Source text: To investigate whether, similarly to Dex, a topical administration of CpdX could result in a skin atrophy, Balb/C mice were shaved on the dorsal skin. Ethanol (vehicle), Dex, CpdX or either one of its two enantiomers CpdX(eA) or CpdX(eB), as well as the deuterated form CpdX-D3 or either one of its two enantiomers CpdX-D3(eA) or CpdX-D3(eB), were topically applied onto the dorsal skin for 8 days.
Upon completion of the treatments, RNA transcripts were extracted from dorsal skin samples and the transcripts of Kindlin-1 and REDD1 genes were analyzed by q-RT-PCR. Histological and morphometric analyses of the dorsal skin were also performed.

[2] = test system: DSS-induced Th17 ulcerative colitis; assay: Dextran sodium sulfate (DSS)-induced ulcerative colitis; type: in vivo, Balb/C mice; settings: for pro-inflammatory genes overexpressed in DSS-induced ulcerative colitis (IL-1β, IL-6, IL-17a, IL-17f, TSLP, MMP13): colon, q-RT-PCR, D14; for colonic villus/crypt structure (histology) / mucosal and submucosal cell infiltration (histology): i.p. 1 mg/kg on D11, D12, D13, 3% DSS 13 days
Method: To investigate the anti-inflammatory activity of CpdX and CpdX-D3 on a Th17 ulcerative colitis, Balb/C mice were treated with 3% DSS in drinking water for 13 days, with or without an intraperitoneal administration of either Dex, CpdX, CpdX(eA), CpdX(eB), CpdX-D3, CpdX-D3(eA) or CpdX-D3(eB) (1 mg/kg of body weight) on D11, D12 and D13.
At D14, RNA transcripts were extracted from mouse colons. IL-1β, IL-6, IL-17a, IL-17f, TSLP and MMP13 transcripts were analyzed by q-RT-PCR. Colon samples were also harvested for histological analyses (with H&E staining).

[3] = test system: thymus, spleen, adrenal gland and kidney; assay: Organ weights (thymus, spleen, adrenal gland, kidney) after three-month treatment; type: in vivo, B6 male mice; settings: s.c. 1 mg/kg daily, three months
Method: B6 male mice (8-week-old) were daily subjected for three months to a subcutaneous injection of either vehicle (NaCl 0.9%), Dex, CpdX, CpdX(eA), CpdX(eB), CpdX-D3, CpdX-D3(eA) or CpdX-D3(eB) (1 mg/kg body weight, diluted in vehicle). Following these treatments, four organs (thymus, spleen, adrenal gland and kidney) were harvested and weighted.

[4] = test system: OVA-induced allergic conjunctivitis; assay: Ovalbumin (OVA)-induced allergic conjunctivitis; type: in vivo, Balb/C mice; settings: 0.1% instillation D22 to D24, 20 minutes after the last OVA challenge
Method: To investigate the anti-inflammatory effect of CpdX or CpdX-D3 on an allergic conjunctivitis, Balb/C mice were intraperitoneally sensitized with 50 μg OVA with alum on both days D1 and D8, and then challenged from D15 to D21 with 250 μg OVA in 5 μL of sterilized vehicle (0.9% NaCl), which were directly instilled onto the conjunctival sac. From D22 to D24, mice were divided into several groups, and received instillations with either OVA alone, OVA together with 0.1% of either Dex, CpdX, CpdX(eA), CpdX(eB), CpdX-D3, CpdX-D3(eA) or CpdX-D3(eB).
The clinical appearance of mouse eyes was evaluated 20 minutes after the last instillation on D24. Clinical signs (conjunctival hyperemia, lid edema and tearing) were scored to evaluate the occurrence and severity of conjunctivitis as described by Gimenes et al. (2015. Experimental Eye Research 134:24-32). Parameters were graded on a scale ranging from 0 to 3, (0=absence, 1=mild, 2=moderate, and 3=severe symptoms), each animal receiving a total clinical score ranging from 0 to 9. The data were expressed as mean±SEM with at least four mice per treatment.

adrenal glands = assay: Corticosterone synthesis and adrenal gland after three-month treatment; type: in vivo, B6 male mice; settings: three months; for cortex layers, most notably the fasciculata zone, of the adrenal glands (histology) / transcripts of Cyp11a, Cyp11b1 and HSD3β genes in adrenal glands (corticosterone synthesis pathway): s.c. 1 mg/kg daily; for transcripts of Cyp11a, Cyp11b1 and HSD3β genes in adrenal glands (corticosterone synthesis pathway): q-RT-PCR; for plasmatic corticosterone level at 10 a.m.: vs Vehicle
Method: B6 male mice (8-week-old) were daily subjected for three months to either a subcutaneous injection of vehicle (NaCl 0.9%), Dex, CpdX, CpdX(eA), CpdX(eB), CpdX-D3, CpdX-D3(eA) or CpdX-D3(eB) (1 mg/kg body weight, diluted in vehicle).
Following this long-term treatment, blood was collected at 10 a.m. and 6 p.m. by retro-orbital puncture in lithium-heparin coated vials, and the plasmatic level of corticosterone was determined. Adrenal glands were harvested and weighted. RNA transcripts were extracted and transcripts of the Cyp11a, Cyp11b1, Cyp11b2 and HSD3β genes were analyzed by q-RT-PCR. Histological analyses of the adrenal glands were also carried out.

[5] = test system: collagen-induced Th17 rheumatoid arthritis-like inflammation; assay: Collagen-induced arthritis (CIA); type: in vivo, mice (DBA-1 strain); settings: i.p. 1 mg/kg daily for 10 days (T0 to T10); 1 mg/kg
Method: Mice were treated with collagen to induce a Th17 rheumatoid arthritis-like inflammation as described by Inglis et al. (2007. Arthritis Res Ther. 9(5):R113) and Geboes et al. (2009. Arthritis Rheum. 60(2):390-5).
Male mice (DBA-1 strain) were subcutaneously-injected with 100 μg collagen per mouse on D0. The hind paw thickness at the ankle level was regularly measured with a caliper. When the ankle thickness had reached around 4 mm (T0, i.e., 30 to 50 days after the collagen injection on D0), mice were daily intraperitoneally-injected for 10 days (T0 to T10) with either vehicle (NaCl 0.9%), Dex, CpdX, CpdX(eA), CpdX(eB), CpdX-D3, CpdX-D3(eA) or CpdX-D3(eB) (1 mg/kg body weight diluted in NaCl 0.9%), and the hind paw thickness at the ankle level was daily measured with a caliper. Pictures of the hind paws were taken at days T0 and T10 (before and after the treatment with either Vehicle, Dex, CpdX, CpdX(eA), CpdX(eB), CpdX-D3, CpdX-D3(eA) or CpdX-D3(eB)), in order to assess the course of swelling.
RNA transcripts were extracted from whole hind paws of collagen-untreated and collagen-treated mice at T0 and T10. IL-1β, IL-6, IL-17a, IL-17f and TNFα transcripts were analyzed by q-RT-PCR.

[6] = Blood glucose and intraperitoneal glucose tolerance test (IPGTT) after three-month treatment; type: in vivo, B6 male mice; settings: three months; glucose i.p. injection
Method: B6 male mice (8-week-old) were daily subjected for three months to a subcutaneous injection of either vehicle (NaCl 0.9%), Dex, CpdX, CpdX(eA), CpdX(eB), CpdX-D3, CpdX-D3(eA) or CpdX-D3(eB) (1 mg/kg body weight, diluted in vehicle). Mice were over-night-fasted. Mouse blood glucose concentration was measured before (To) and during two hours (T120) after glucose i.p. injection ([…]).

epidermal thickness (morphometric analyses) [1]	cortex layers, most notably the fasciculata zone, of the adrenal glands (histology) (adrenal glands)	transcripts of Cyp11a, Cyp11b1 and HSD3β genes in adrenal glands (corticosterone synthesis pathway) (adrenal glands)	plasmatic corticosterone level at 10 a.m. (adrenal glands)	Structure (SMILES)	pro-inflammatory genes overexpressed in DSS-induced ulcerative colitis (IL-1β, IL-6, IL-17a, IL-17f, TSLP, MMP13) [2]	colonic villus/crypt structure (histology) [2]	mucosal and submucosal cell infiltration (histology) [2]	thymus apoptosis (thymus weight) [3]	clinical signs of allergic conjunctivitis (conjunctival hyperemia, lid edema and tearing) [4]	hind paw thickness at the ankle level [5]	blood glucose level during two-hour IPGTT [6]
not significantly decreased	markedly increased	increased	much higher	COc1ccc(F)cc1C(C)(C)CC(O)(CNc1ccc2c(c1)COC2=O)C(F)(F)F (single isomer, unassigned; enantiomer b) [CpdX(eB), 5-[4-(5-fluoro-2-methoxyphenyl)-2-hydroxy-4-methyl-2-(trifluoromethyl)-pentylamino]isobenzofuran-1(3H)-one enantiomer B]	similarly repressed	almost reestablished	significantly decreased	did not result in any significant thymus apoptosis	considerably reduced	no such decrease	no significant difference
not significantly decreased	markedly increased	increased	much higher	[2H]C([2H])([2H])Oc1ccc(F)cc1C(C)(C)CC(O)(CNc1ccc2c(c1)COC2=O)C(F)(F)F (single isomer, unassigned; enantiomer b) [CpdX-D3(eB), 5-{4-[2-(methoxy-D3)-5-fluorophenyl]-2-hydroxy-4-methyl-2-(trifluoromethyl)pentylamino}isobenzofuran-1(3H)-one enantiomer B]	similarly repressed	almost reestablished	significantly decreased	did not result in any significant thymus apoptosis	considerably reduced	no such decrease	no significant difference
